Experimental findings from paper PMC11134331, “Cell-active small molecule inhibitors validate the SNM1A DNA repair nuclease as a cancer target” (Chemical Science, 2024) are described below.

One series can be described thus: solubility. The format is physicochemical.
Series [1] concerns the target T1, SNM1A (Homo sapiens, UniProt Q6PJP8).
T1 sequence (Q6PJP8 676-1040): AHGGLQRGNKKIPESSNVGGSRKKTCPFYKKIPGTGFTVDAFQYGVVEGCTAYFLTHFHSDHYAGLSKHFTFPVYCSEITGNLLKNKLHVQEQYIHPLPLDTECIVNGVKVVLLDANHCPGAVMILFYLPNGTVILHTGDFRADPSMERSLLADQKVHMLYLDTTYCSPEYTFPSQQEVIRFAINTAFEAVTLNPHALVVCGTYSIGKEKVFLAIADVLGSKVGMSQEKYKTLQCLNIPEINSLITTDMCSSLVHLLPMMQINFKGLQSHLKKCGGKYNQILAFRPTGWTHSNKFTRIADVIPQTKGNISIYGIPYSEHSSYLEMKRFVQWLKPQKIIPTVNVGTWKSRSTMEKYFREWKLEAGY
Kind of series: real-time fluorescence-based nuclease assay, SNM1A. The format is biochemical. Also on record: DNA encoding for the MBL and β-CASP domains of SNM1A (aa 676–1040) was cloned into the baculovirus transfer vector pFB-LIC-Bse; inferred from vector pFB-LIC-Bse and the IMAC purification; made in house; host or cells: Sf9 insect cells (baculovirus). As to conditions: for IC50: read-out: SNM1A IC50. Here is the method:
In brief, the fluorescence-based nuclease assay utilises a chemically modified 20-nucleotide ssDNA substrate with a fluorescein isothiocyanate (FITC) derived 5′-group and an internal black-hole-quencher-1 (BHQ-1), located eight nucleotides distal to the fluorescein group. In the intact substrate the BHQ-1 suppresses fluorescence, however, exonucleolytic digestion of the substrate from the 5′ end by SNM1A uncouples the BHQ-1 and FITC moieties (see Fig. 1D). Spectra were measured every 140 seconds with an increase in fluorescence indicating enzymatic activity by SNM1A (concentration: 0.1 nM).
(§1) Fluorescence-based nuclease digestion SNM1A–C assays were performed as described.[30,45] In the case of SNM1A and SNM1B, a 20-mer oligonucleotide with a 5′ FITC-conjugated-T and an internal BHQ-1 (black hole quencher) conjugated-T, eight nucleotides distal (3′) to the fluor was utilised; whereas for SNM1C a 20-mer oligonucleotide with a 5′ FITC-conjugated-T and a 3′ BHQ-1(black hole quencher) was used to capture all possible endonucleolytic incisions. Reactions (25 μL) were performed in 384 well microplates in nuclease buffer (20 mM HEPES-KOH pH 7.5, 50 mM KCl, 10 mM MgCl2, 0.5 mM TCEP, 0.05% (v/v) Triton-X, 0.1 mg mL^−1 BSA, 5% (v/v) glycerol) with SNM1A/B/C (0.1 nM SNM1A, 0.5 nM SNM1B and 1 nM SNM1C) as indicated. Proteins were incubated for 10 min at RT with the stated compound where applicable, before the reaction was initiated with the addition of 10 nM DNA substrate. […] Fluorescence spectra were measured every 140 s, for 35 min, at 37 °C. The fluorescence intensity of each well was plotted against compound concentration and fitted using a log (inhibitor) response curve using GraphPad Prism software (GraphPad Software, Inc., La Jolla, CA, USA).

In series [2] the target is T1, SNM1A. The experiment in a line: gel-based nuclease assay, SNM1A. The format is biochemical. Also noted: DNA encoding for the MBL and β-CASP domains of SNM1A (aa 676–1040) was cloned into the baculovirus transfer vector pFB-LIC-Bse; inferred from vector pFB-LIC-Bse and the IMAC purification; made in house; host or cells: Sf9 insect cells (baculovirus). Conditions: 0.5 nM SNM1A. The source says:
(§2) To validate the inhibition of SNM1A, SNM1B, and SNM1C observed in the fluorescence-based screening assays, we then performed gel-based assays using 3′ terminally-labelled oligonucleotide substrates that enable both quantitative and qualitative (visual) assessment of the pattern of inhibition, for a subset of compounds. Importantly, whereas the fluorescence-based assay measures a single hydrolytic event at the substrate terminus, the gel-based nuclease assay informs on the pattern of digestion of the entire 51-mer substrate DNA over time.
(§3) Standard exonuclease assays were carried out in a 10 μL final volume containing 20 mM HEPES-KOH, pH 7.5, 50 mM KCl, 0.5 mM TCEP, 10 mM MgCl2, 0.05% (v/v) Triton X-100, 5% (v/v) glycerol, and SNM1 proteins as indicated. Inhibitors were dissolved in DMSO and diluted immediately prior to the reaction in the above buffer. Inhibitors were serially diluted two-fold from 100 μM. The DMSO concentration was kept constant at 0.1% (v/v) in the final reaction mixture. Inhibitors were incubated with the indicated SNM1 enzyme for 10 minutes at room temperature; reactions were initiated by addition of 10 nM DNA substrate and incubated at 37 °C for 20 min. Reactions were quenched by addition of 5 μL stop solution (95% formamide, 10 mM EDTA, 0.25% (v/v) xylene cyanol, 0.25% (v/v) bromophenol blue) and heated at 95 °C for 3 min. Reactions were analysed by 20% denaturing polyacrylamide gel electrophoresis solution of 19 : 1 acrylamide:bis-acrylamide, BioRad and 7 M urea (Sigma Aldrich) in 1 × TBE (Tris-borate EDTA) buffer. Electrophoresis was carried out at 525 V for 75 minutes; gels were subsequently fixed for 60 minutes in a 50% (v/v) methanol, 10% (v/v) acetic acid solution, and dried at 80 °C for two hours under vacuum. Dried gels were exposed to a Kodak Phosphor imager screen and scanned using a Typhoon 9500 instrument (GE Healthcare), scanned images were quantified using ImageJ.

Another series concerns the target T2, SNM1B (Homo sapiens, UniProt Q9H816).
T2 construct: for the MBL and β-CASP domains of SNM1B (aa 1–335) into baculoviral expression vectors pFB-CT10HF-LIC; made in house; host or cells: Sf9 insect cells (baculovirus)
T2 sequence (Q9H816 1-335): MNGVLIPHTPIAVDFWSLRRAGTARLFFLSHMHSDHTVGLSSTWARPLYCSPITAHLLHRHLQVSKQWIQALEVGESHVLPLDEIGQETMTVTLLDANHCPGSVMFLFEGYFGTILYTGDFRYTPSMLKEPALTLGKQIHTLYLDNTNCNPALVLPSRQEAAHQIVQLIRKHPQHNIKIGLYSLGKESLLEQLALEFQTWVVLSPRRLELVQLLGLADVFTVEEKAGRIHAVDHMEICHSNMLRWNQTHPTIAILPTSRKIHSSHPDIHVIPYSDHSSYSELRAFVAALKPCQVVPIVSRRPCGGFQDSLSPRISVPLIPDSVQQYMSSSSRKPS
The experiment in a line: gel-based nuclease assay, SNM1B. The format is biochemical. Conditions: 1 nM SNM1B.
Excerpt: as §2, §3
Suppl. Figure 10. Increasing concentrations (as indicated, in μM) of compounds incubated with 1 nM SNM1B or 2.5 nM SNM1C (room temperature, 10 min), before initiating nuclease reaction by addition of ssDNA (37 °C, 20 min). Products were analysed by 20% denaturing PAGE. Gels are representative versions from a minimum of three independent experimental repeats.
(1 picture or pasted object on this page, not shown here)

Series [3] concerns U2OS (osteosarcoma) cells. The experiment in a line: clonogenic survival assay, U2OS cells. The format is cell-based, human. Conditions: for cell death as single agent: U2OS, 50 μM compound. Here is the method:
Clonogenic assays were performed in 10 cm tissue culture dishes (for RPE-1 cells, U2OS cells and derived clones). Cells (1000 per dish) were seeded in complete media (10 mL) and allowed to attach overnight, then treated with cisplatin or cisplatin plus inhibitor for the times stated. Following treatments, cells were allowed to grow and form colonies for 10 days. Colonies formed were stained with Coomassie R250 (Sigma) and counted on a COLCount Colony Counter (Oxford Optronix). All experiments represent the mean (±SEM) of at least three biological repeats of duplicate dishes/flasks for each treatment.

Series [4] deals with T3, SNM1C (Homo sapiens, UniProt Q96SD1).
T3 construct: for the MBL and β-CASP domains of SNM1C (aa 1–362) into the baculovirus expression vector pBF-6HZB; made in house; host or cells: Sf9 insect cells (baculovirus)
The experiment in a line: real-time fluorescence-based nuclease assay, SNM1C. The format is biochemical.
Excerpt: There is structural similarity between SNM1A, SNM1B, and SNM1C and major mechanistic features are likely conserved between the three nucleases. We therefore tested (13) and other hydroxamic acid analogues for inhibition of SNM1B and SNM1C. […] Note that the substrate utilised for the high-throughput fluorescence based and subsequent SNM1A and SNM1B assays differed slightly for SNM1C reflecting its (primarily) endonucleolytic, rather than exonucleolytic, activity (ESI Fig. 9 ^†).
as §1

The target in series [5] is T3, SNM1C. The experiment in a line: gel-based nuclease assay, SNM1C. The format is biochemical.
Excerpt: as §2, §3
Suppl. Figure 10. […] Products were analysed by 20% denaturing PAGE. […]

Where [6] appears, read: real-time fluorescence-based nuclease assay, resynthesised compounds.

T3 sequence (Q96SD1 1-362): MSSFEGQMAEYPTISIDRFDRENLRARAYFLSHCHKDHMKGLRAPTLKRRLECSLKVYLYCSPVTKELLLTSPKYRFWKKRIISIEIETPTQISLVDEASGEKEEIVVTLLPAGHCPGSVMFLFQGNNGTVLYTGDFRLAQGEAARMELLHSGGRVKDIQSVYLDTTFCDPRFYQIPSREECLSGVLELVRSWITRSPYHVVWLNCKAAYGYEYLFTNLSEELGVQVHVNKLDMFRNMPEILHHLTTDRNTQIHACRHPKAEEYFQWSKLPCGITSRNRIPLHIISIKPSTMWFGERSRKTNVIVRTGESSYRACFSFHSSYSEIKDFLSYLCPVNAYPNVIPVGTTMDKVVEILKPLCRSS

What is called IC50 is the concentration needed to halve the response being measured. For `O=c1[nH]c2cnc3ccc(Cl)cc3c2[nH]c1=O` [compound 2], the “solubility” value in the series “solubility” was “poor solubility”. The IC50 on SNM1A [1] (setting [6]) was 2 µM.
The like results for `COc1cc2c3c(cccc3c1)C(=O)N(O)C2=O` [compound 3] were, in that order, “poor solubility” and 2.9 µM.
On to `C=CCNc1nc(N[C@@H](CC(C)C)C(=O)OC)c2cc(Cl)ccc2n1` [compound 7], for which the IC50 on SNM1A [1] (setting [6]) was over 1000 µM.
As for `C=CCNc1nc(N[C@@H](CC(C)C)C(N)=O)c2cc(Cl)ccc2n1` [compound 8], the IC50 at SNM1A [1] (setting [6]) is over 1000 µM.
On the same count and under the same terms, to `C=CCNc1nc(N[C@H](CO)CC(C)C)c2cc(Cl)ccc2n1` [compound 9] belongs over 1000 µM.
As to `C=CCNc1nc(NC(CC(C)C)C(=O)NO)c2cc(Cl)ccc2n1` (stereo not shown) [compound 10], the “increase in SNM1A potency compared to K1 (6)” value at SNM1A [1] (fluorescence-based assay) was found to be 3 fold. In addition, the IC50 at SNM1A [1] (setting [6]) was 33 µM.
Regarding `C=CCNc1nc(NCC(=O)NO)c2cc(Cl)ccc2n1` [compound 11], the IC50 on SNM1A [1] (setting [6]) was found to be 17 µM.
For the compound `C=CCNc1nc(N[C@H](C)C(=O)NO)c2cc(Cl)ccc2n1` [compound 12], at SNM1A [2], the “inhibition of SNM1A in gel-based assay” value is “good inhibition”. The “inhibition of SNM1B in gel-based assay” value at SNM1B is listed as “good inhibition”. In addition, the “effect on cisplatin cytotoxicity” value in series [3] (U2OS wild-type, 50 μM compound 20 hours pre-treatment, 0–15 μM cisplatin) is “potentiation of cisplatin cytotoxicity”. Further, in series [3], the “cell death as single agent” value is at most 10%. For the same compound, the IC50 on SNM1A [1] (setting [6]) is 2.2 µM.
Consider `C=CCNc1nc(N[C@@H](C)C(=O)NO)c2cc(Cl)ccc2n1` [compound 13], for which, on SNM1A [2], the “inhibition of SNM1A in gel-based assay” value is given as “good inhibition”. The “inhibition of SNM1B in gel-based assay” value against SNM1B is listed as “good inhibition”. Moreover, the “cell death as single agent” value in series [3] is given as at most 10%. In addition, the IC50 on SNM1A [1] (setting [6]) is 0.8 µM.
For the compound `C=CCNc1nc(NC(CO)C(=O)NO)c2cc(Cl)ccc2n1` (stereo not shown) [compound 14], the IC50 on SNM1A [1] (setting [6]) came to 4.1 µM.
Still for that read-out and setting: to `C[C@H](Nc1nc(N2CCOCC2)nc2ccc(Cl)cc12)C(=O)NO` [compound 15] belongs 42 µM.
As to `C[C@H](Nc1nc(NCc2ccccc2)nc2ccc(Cl)cc12)C(=O)NO` [compound 16], the IC50 stood at 1.1 µM against SNM1C [4] (real-time fluorescence-based nuclease assay) and 34 µM at SNM1A [1] (setting [6]).
With `CCCN(C)c1nc(N[C@@H](C)C(=O)NO)c2cc(Cl)ccc2n1` [compound 17], the IC50 at SNM1A [1] (setting [6]) came out at 20 µM.
As to `CCN(CC)c1nc(N[C@@H](C)C(=O)NO)c2cc(Cl)ccc2n1` [compound 18], the “selectivity among SNM1A, SNM1B, SNM1C” value at SNM1C [4] (fluorescence-based assays) is “only potent against SNM1C”. Moreover, the IC50 on SNM1A [1] (setting [6]) was over 100 µM.
`C=CCNC(=O)c1nc(N[C@@H](C)C(=O)NO)c2ccccc2n1` [compound 20]: the “inhibition of SNM1A in gel-based assay” value against SNM1A [2] was “good inhibition”. Besides, the “inhibition of SNM1B in gel-based assay” value at SNM1B was “good inhibition”. For the same compound, the “decrease in SNM1A potency compared to 13” value on SNM1A [1] (fluorescence-based assay) was found to be 100 fold. For the same compound, the IC50 at SNM1A [1] (setting [6]) worked out at 84 µM.
Regarding `CCOc1nc(N[C@@H](C)C(=O)NO)c2cc(Cl)ccc2n1` [compound 21], the “concentration giving complete inhibition of SNM1C digestion” value on SNM1C [5] is about 6 µM. In addition, the “inhibition of SNM1C in gel-based assay” value at SNM1C [5] (2.5 nM SNM1C) is “clearly inhibits the nuclease activity of SNM1C”. Also, the IC50 on SNM1A [1] (setting [6]) came to 67 µM.
With `C[C@H](Nc1nc(N(C)C)nc2ccc(Cl)cc12)C(=O)NO` [compound 22], the IC50 at SNM1A [1] (setting [6]) was 11 µM.
For the compound `C[C@H](Nc1nc(N(C)C)nc2ccc(F)cc12)C(=O)NO` [compound 23], at SNM1A [1] (setting [6]), the half-maximal inhibitory concentration (IC50) was found to be 13 µM.
Still for that read-out and setting: the result for `COc1ccc2nc(N(C)C)nc(N[C@@H](C)C(=O)NO)c2c1` [compound 24] reads 74 µM.
In the case of “AZ1353160 [compound 4, reference compound]”, at SNM1A [1] (setting [6]), the “SNM1A IC50” value is listed as “an IC50 value could not be calculated”.
